In PubChem BioAssay (NCI) one finds GI50 and TGI data, which are given here for six compounds.

SMILES strings stand for the structures.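 Growth conditions: 96-well plates. Treatment: test compound, 48 hours, 5 concentrations. Analysis: linear interpolation between bracketing concentrations; unreached endpoints set to highest concentration. Here, GI50 denotes the concentration required for 50% inhibition of growth. TGI is the concentration that stops growth completely.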 A value given as a limit tells only on which side of the number the result lay.

Some test systems named below: EKVX NSCLC; HT29 colon; NCI-H522 lung; NCI/ADR-RES ovarian; OVCAR-4 ovarian; SK-MEL-5 melanoma; TK-10 renal; UACC-257 melanoma; UACC-62 melanoma; K-562 leukemia.
Holding throughout (assay): NCI tumour cell line growth inhibition, 48 h

For the compound `C=CCN1C(=O)[C@]2(SC1=S)[C@H](c1cccc(Cl)c1)CN(C)[C@]21C(=O)NC2C=CC(Cl)=C[C@H]21` (stereo partly specified), the GI50 in the assay with EKVX NSCLC is 4.54 µM; in the assay on HT29 colon, 1.67 µM; with NCI-H522 lung, 5.79 µM; in the assay with NCI/ADR-RES ovarian it was 4.18 µM; with OVCAR-4 ovarian, 2.13 µM; in the assay with SK-MEL-5 melanoma, 5.28 µM. In addition, the GI50 in the assay with TK-10 renal is 13 µM; with UACC-257 melanoma it was 12.2 µM; in the assay with UACC-62 melanoma, 3.7 µM. Further, the TGI with EKVX NSCLC stood at 24.6 µM; with HT29 colon, 3.85 µM; with NCI-H522 lung, 20.6 µM; with NCI/ADR-RES ovarian, 21.2 µM; in the assay on OVCAR-4 ovarian, 10.2 µM; in the assay with SK-MEL-5 melanoma it was 18.2 µM. Further, the TGI with TK-10 renal worked out at 26.9 µM; in the assay with UACC-257 melanoma it was 35.8 µM; in the assay with UACC-62 melanoma, 19.1 µM.

As to `COC(=O)[C@H](CCCCNC(=O)OCc1ccccc1)NC(=O)[C@@H](NC(=O)Nc1cc(C(F)(F)F)cc(C(F)(F)F)c1)C(C)C`, the GI50 with HT29 colon, in the assay on K-562 leukemia, with NCI-H522 lung, with NCI/ADR-RES ovarian, in the assay with OVCAR-4 ovarian and in the assay on SK-MEL-5 melanoma was over 10 µM in each case. The GI50 in the assay on TK-10 renal, with UACC-257 melanoma and with UACC-62 melanoma was over 10 µM in each case. Also, the TGI in the assay with HT29 colon, with K-562 leukemia, in the assay on NCI-H522 lung, in the assay with NCI/ADR-RES ovarian, in the assay on OVCAR-4 ovarian and in the assay on SK-MEL-5 melanoma was over 10 µM each time. Besides, the TGI in the assay with TK-10 renal, in the assay on UACC-257 melanoma and in the assay with UACC-62 melanoma was over 10 µM each time.

In the case of `CC(=O)/C=C/c1ccc(N(CCO)Cc2ccc(C(C)(C)C)cc2)cc1`, the GI50 in the assay on EKVX NSCLC is 31 µM; in the assay with HT29 colon it was 27.7 µM; with NCI-H522 lung it was 84.8 µM; in the assay on NCI/ADR-RES ovarian it was 39.1 µM; in the assay on OVCAR-4 ovarian, 43.6 µM; in the assay with SK-MEL-5 melanoma, 39.9 µM. The figures for the GI50 in the assay with TK-10 renal, with UACC-257 melanoma and in the assay on UACC-62 melanoma were 112 µM, 78.1 µM and 46.6 µM, respectively. In addition, the TGI worked out at 162 µM with EKVX NSCLC; 103 µM with HT29 colon; 237 µM in the assay on NCI-H522 lung; 174 µM in the assay with NCI/ADR-RES ovarian; 175 µM in the assay with OVCAR-4 ovarian; 146 µM with SK-MEL-5 melanoma. Besides, the values for the TGI in the assay on TK-10 renal, with UACC-257 melanoma and with UACC-62 melanoma were 237 µM, 217 µM and 176 µM, respectively.

`Cc1cn2c(/C=C3\C(=O)N(C)c4ccc(Cl)cc43)c(C)nc2s1`: the GI50 in the assay on EKVX NSCLC was 9.9 µM; in the assay on HT29 colon it was 1.9 µM; in the assay with NCI-H522 lung, 2.76 µM; in the assay with NCI/ADR-RES ovarian, 1.9 µM; in the assay on OVCAR-4 ovarian it was 6.18 µM; with SK-MEL-5 melanoma, 1.34 µM. Besides, the GI50 was 9.65 µM with TK-10 renal, 3.37 µM with UACC-257 melanoma and 3.7 µM in the assay with UACC-62 melanoma. Moreover, the TGI with EKVX NSCLC is over 100 µM; with HT29 colon it was 12 µM; in the assay with NCI-H522 lung, 7.76 µM; in the assay on NCI/ADR-RES ovarian, 5.66 µM; with OVCAR-4 ovarian it was 91 µM; in the assay on SK-MEL-5 melanoma it was 19.5 µM. Also, the TGI is 73 µM in the assay with TK-10 renal, 38.6 µM in the assay with UACC-257 melanoma and over 100 µM with UACC-62 melanoma.

On to `CCOC(=O)c1cc(C(=O)c2cc(OC)c(OC)c(OC)c2)n2ccc(-c3cc[n+](CC(=O)c4cc(OC)c(OC)c(OC)c4)cc3)cc12`, for which the GI50 in the assay with EKVX NSCLC was 2.64 µM; in the assay on HT29 colon it was 1.83 µM; with NCI-H522 lung, 2.13 µM; in the assay with NCI/ADR-RES ovarian, over 100 µM; in the assay with OVCAR-4 ovarian, 1.74 µM; with SK-MEL-5 melanoma, 1.81 µM. The GI50 was 1.79 µM in the assay with TK-10 renal, 3.13 µM with UACC-257 melanoma and 2.32 µM with UACC-62 melanoma. Further, the TGI was 10.3 µM in the assay with EKVX NSCLC; 3.68 µM in the assay on HT29 colon; 5.04 µM with NCI-H522 lung; over 100 µM in the assay on NCI/ADR-RES ovarian; 3.67 µM with OVCAR-4 ovarian; 3.54 µM with SK-MEL-5 melanoma. The TGI amounted to 3.5 µM in the assay on TK-10 renal, 7.04 µM in the assay on UACC-257 melanoma and 5.72 µM in the assay on UACC-62 melanoma.

With `CCOC(=O)c1cc2c(n1Cc1ccccc1OC)-c1oncc1CCC2`, the GI50 is 0.912 µM in the assay with HT29 colon; 1.59 µM in the assay with K-562 leukemia; 0.351 µM in the assay with NCI-H522 lung; 1.36 µM in the assay on NCI/ADR-RES ovarian; 9.35 µM in the assay on OVCAR-4 ovarian; 2.61 µM in the assay with SK-MEL-5 melanoma. The GI50 in the assay on TK-10 renal was 67.8 µM; in the assay with UACC-62 melanoma, 3.37 µM. Further, the TGI is over 100 µM with HT29 colon; over 100 µM in the assay on K-562 leukemia; 2.88 µM in the assay on NCI-H522 lung; over 100 µM in the assay with NCI/ADR-RES ovarian; over 100 µM with OVCAR-4 ovarian; over 100 µM with SK-MEL-5 melanoma. Besides, the TGI in the assay with TK-10 renal and in the assay on UACC-62 melanoma was over 100 µM throughout.
